According to patent publication US9060514B2, “Efficacy-enhancing agent composition for agricultural chemicals” (priority 2010, dated 2015):

Test: Flash point of solvents
Assay type: physicochemical
Conditions: measured with Cleveland open cup tester or value from 15509 chemical products
Text: A flash point was a measured value (with a Cleveland open cup flashpoint tester or a value described in “15509 no Kagaku Seihin (15509 chemical products)” (2009, Jan., 27, Chemical Daily Co., Ltd.). Among solvents used in Comparative Examples, for those having a structure corresponding to the formula (C1), meanings of items in the formula (C1) were shown for convenience.

Flash point | Structure (SMILES)
56 °C | COCCOCCOC [Diethylene glycol dimethyl ether]
122 °C | CCCCOCCOCCOCCCC [Diethyleneglycol dibutyl ether]
95 °C | C[S+](C)[O-] [Dimethylsulfoxide]
102 °C | CCOCCOCCO [Ethyl carbitol]
28 °C | CC(C)CO [Isobutanol]
12 °C | CC(C)O [Isopropanol]
32 °C | COCC(C)O (stereo not drawn) [Propylene glycol monomethyl ether]
99 °C | CC(O)CO (stereo not drawn) [Propylene glycol]

More lines, now with the values behind:

Structure (SMILES) | Flash point
CCCCC(CC)CO (stereo not drawn) [2-ethyl-l-hexanol] | 78 °C
CCCCC(CC)COCCOCCO (stereo not drawn) [Diethylene glycol mono2-ethylhexyl ether] | 151 °C
OCCOCCO [Diethylene glycol] | 138 °C
OCCO [Ethylene glycol] | 120 °C
COCCOCCO [Methyl carbitol] | 105 °C
COCCO [Methyl cellosolve] | 39 °C
CCCCOCCOCCO [n-Butyl carbitol] | 120 °C
